We go through 37 compounds from patent US7435837B2, “Dihydrobenzofuranyl alkanamine derivatives and methods for using same” (Wyeth, priority 2003, dated 2008).

SMILES strings stand for the structures. pKi: −log10 of the molar value.

This assay concerns the target T1, human 5-hydroxytryptamine-2C (h5-HT2C) receptor (Homo sapiens, UniProt P28335).
T1 construct: expressed in transfected cells; host or cells: CHO (Chinese Hamster Ovary) cells; membranes
T1 sequence (P28335 33-458): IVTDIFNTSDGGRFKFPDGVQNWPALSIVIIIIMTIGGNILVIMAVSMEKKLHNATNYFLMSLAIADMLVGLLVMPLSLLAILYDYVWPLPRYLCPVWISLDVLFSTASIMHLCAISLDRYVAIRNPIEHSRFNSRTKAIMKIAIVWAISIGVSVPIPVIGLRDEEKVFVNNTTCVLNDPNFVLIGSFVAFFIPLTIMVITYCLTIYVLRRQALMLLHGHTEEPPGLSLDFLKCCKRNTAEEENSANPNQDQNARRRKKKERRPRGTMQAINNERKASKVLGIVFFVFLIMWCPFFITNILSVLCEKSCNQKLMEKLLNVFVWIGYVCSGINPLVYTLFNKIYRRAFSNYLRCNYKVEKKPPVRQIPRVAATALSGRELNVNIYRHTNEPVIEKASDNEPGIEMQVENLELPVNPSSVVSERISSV
The assay is described as follows: [125I]DOI binding to membranes of CHO cells expressing the human 5-HT2C receptor. Particulars: [125I]DOI radioligand, CHO cell membranes, room temperature 60 min; read-out: 5-HT2C Affinity Ki.
As usually defined, the pKi is the negative decadic logarithm of the Ki, by convention in mol/L. Regarding `NCC1Cc2cc(C(F)(F)F)cc(-c3ccc(C(F)(F)F)cc3)c2O1` (racemic) [Example 327, (±)-{[5-(trifluoromethyl)-7-(4-(trifluoromethyl)phenyl)-2,3-dihydro-1-benzofuran-2-yl]methyl}amine], the pKi is 6.59.
On to `Cc1cccc(-c2cc(C(F)(F)F)cc3c2OC(CN)C3)c1C` (racemic) [Example 328, (±)-{[7-(2,3-dimethylphenyl)-5-(trifluoromethyl)-2,3-dihydro-1-benzofuran-2-yl]methyl}amine], for which the pKi is 7.21.
As for `NCC1Cc2cc(C(F)(F)F)cc(-c3cccc(F)c3F)c2O1` (racemic) [Example 329, (±)-{[7-(2,3-difluorophenyl)-5-(trifluoromethyl)-2,3-dihydro-1-benzofuran-2-yl]methyl}amine], the figure is 7.06; as for `NCC1Cc2cc(C(F)(F)F)cc(-c3cccc(Cl)c3Cl)c2O1` (racemic) [Example 330, (±)-{[7-(2,3-dichlorophenyl)-5-(trifluoromethyl)-2,3-dihydro-1-benzofuran-2-yl]methyl}amine], 7.06; as for `NCC1Cc2cc(C(F)(F)F)cc(-c3ccc(F)c(F)c3)c2O1` (racemic) [Example 334, (±)-{[7-(3,4-difluorophenyl)-5-(trifluoromethyl)-2,3-dihydro-1-benzofuran-2-yl]methyl}amine], 6.49.
As for `NCC1Cc2cc(C(F)(F)F)cc(-c3ccc(F)c(Cl)c3)c2O1` (racemic) [Example 335, (±)-{[7-(3-chloro-4-fluorophenyl)-5-(trifluoromethyl)-2,3-dihydro-1-benzofuran-2-yl]methyl}amine], the figure is 6.72; as for `CCCCc1ccc(-c2cc(C(F)(F)F)cc3c2OC(CN)C3)cc1` (racemic) [Example 339, (±)-{[7-(4-butylphenyl)-5-(trifluoromethyl)-2,3-dihydro-1-benzofuran-2-yl]methyl}amine], 6.48; as for `N#Cc1ccc(-c2cc(C(F)(F)F)cc3c2OC(CN)C3)cc1` (racemic) [Example 340, (±)-4-[2-(aminomethyl)-5-(trifluoromethyl)-2,3-dihydro-1-benzofuran-7-yl]benzonitrile], 7.06.
With `NCC1Cc2cc(-c3ccccc3)cc(-c3ccccc3Cl)c2O1` (racemic) [Example 345, (±)-{[7-(2-chlorophenyl)-5-phenyl-2,3-dihydro-1-benzofuran-2-yl]methyl}amine], the pKi was 7.01.
To `NCC1Cc2cc(-c3ccccc3)cc(-c3ccccc3F)c2O1` (racemic) [Example 348, (±)-{[7-(2-fluorophenyl)-5-phenyl-2,3-dihydro-1-benzofuran-2-yl]methyl}amine] belongs 6.28; to `NCC1Cc2cc(-c3ccccc3)cc(-c3cccc(F)c3)c2O1` (racemic) [Example 349, (±)-{[7-(3-fluorophenyl)-5-phenyl-2,3-dihydro-1-benzofuran-2-yl]methyl}amine], 6.12.
As for `NCC1Cc2cc(-c3ccccc3)cc(-c3ccc(F)cc3)c2O1` (racemic) [Example 350, (±)-{[7-(4-fluorophenyl)-5-phenyl-2,3-dihydro-1-benzofuran-2-yl]methyl}amine], the figure is 6.30; as for `Cc1ccccc1-c1cc(-c2ccccc2)cc2c1OC(CN)C2` (racemic) [Example 351, (±)-{[7-(2-methylphenyl)-5-phenyl-2,3-dihydro-1-benzofuran-2-yl]methyl}amine], 7.06.
To `Cc1cccc(-c2cc(-c3ccccc3)cc3c2OC(CN)C3)c1` (racemic) [Example 352, (±)-{[7-(3-methylphenyl)-5-phenyl-2,3-dihydro-1-benzofuran-2-yl]methyl}amine] belongs 6.06; to `Cc1ccc(-c2cc(-c3ccccc3)cc3c2OC(CN)C3)cc1` (racemic) [Example 353, (±)-{[7-(4-methylphenyl)-5-phenyl-2,3-dihydro-1-benzofuran-2-yl]methyl}amine], 6.07; to `NCC1Cc2cc(-c3ccccc3)cc(-c3ccc(F)cc3F)c2O1` (racemic) [Example 354, (±)-{[7-(2,4-difluorophenyl)-5-phenyl-2,3-dihydro-1-benzofuran-2-yl]methyl}amine], 6.21.
For `NCC1Cc2cc(-c3ccccc3)cc(-c3cc(Cl)ccc3Cl)c2O1` (racemic) [Example 355, (±)-{[7-(2,5-dichlorophenyl)-5-phenyl-2,3-dihydro-1-benzofuran-2-yl]methyl}amine], the pKi is 6.41.
On to `COc1cc2c(c(-c3ccccc3C)c1)OC(CN)C2` (racemic) [Example 358, (±)-{[7-(2-methylphenyl)-5-methoxy-2,3-dihydro-1-benzofuran-2-yl]methyl}amine], for which the pKi is 8.15.
With `Cc1ccccc1-c1cc(F)c2c(c1)CC(CN)O2` (racemic) [Example 375, (±)-{[7-fluoro-5-(2-methylphenyl)-2,3-dihydro-1-benzofuran-2-yl]methyl}amine], the pKi is 7.15.
As for `NCC1Cc2cc(-c3ccccc3Cl)cc(F)c2O1` (racemic) [Example 376, (±)-{[7-fluoro-5-(2-chlorophenyl)-2,3-dihydro-1-benzofuran-2-yl]methyl}amine], the figure is 7.06; as for `NCC1Cc2cc(-c3ccccc3F)cc(F)c2O1` (racemic) [Example 377, (±)-{[7-fluoro-5-(2-fluorophenyl)-2,3-dihydro-1-benzofuran-2-yl]methyl}amine], 6.71; as for `NCC1Cc2cc(-c3ccccc3C(F)(F)F)cc(F)c2O1` (racemic) [Example 378, (±)-({7-fluoro-5-[2-(trifluoromethyl)phenyl]-2,3-dihydro-1-benzofuran-2-yl}methyl)amine], 6.70.
To `COc1ccccc1-c1cc(F)c2c(c1)CC(CN)O2` (racemic) [Example 379, (±)-{[7-fluoro-5-(2-methoxyphenyl)-2,3-dihydro-1-benzofuran-2-yl]methyl}amine] belongs 6.34; to `Cc1cccc(-c2cc(F)c3c(c2)CC(CN)O3)c1` (racemic) [Example 380, (±)-{[7-fluoro-5-(3-methylphenyl)-2,3-dihydro-1-benzofuran-2-yl]methyl}amine], 6.37.
Regarding `NCC1Cc2cc(-c3cccc(F)c3)cc(F)c2O1` (racemic) [Example 381, (±)-{[7-fluoro-5-(3-fluorophenyl)-2,3-dihydro-1-benzofuran-2-yl]methyl}amine], the negative logarithm of the Ki (pKi) was 6.03.
As for `NCC1Cc2cc(-c3cccc(Cl)c3)cc(F)c2O1` (racemic) [Example 382, (±)-{[7-fluoro-5-(3-chlorophenyl)-2,3-dihydro-1-benzofuran-2-yl]methyl}amine], the figure is 6.10; as for `NCC1Cc2cc(-c3cccc(C(F)(F)F)c3)cc(F)c2O1` (racemic) [Example 383, (±)-({7-fluoro-5-[3-(trifluoromethyl)phenyl]-2,3-dihydro-1-benzofuran-2-yl}methyl)amine], 5.75; as for `COc1cccc(-c2cc(F)c3c(c2)CC(CN)O3)c1` (racemic) [Example 384, (±)-{[7-fluoro-5-(3-methoxyphenyl)-2,3-dihydro-1-benzofuran-2-yl]methyl}amine], 5.90.
As for `Cc1ccc(-c2cc(F)c3c(c2)CC(CN)O3)cc1` (racemic) [Example 385, (±)-{[7-fluoro-5-(4-methylphenyl)-2,3-dihydro-1-benzofuran-2-yl]methyl}amine], the figure is 5.87; as for `NCC1Cc2cc(-c3ccc(Cl)cc3)cc(F)c2O1` (racemic) [Example 386, (±)-{[7-fluoro-5-(4-chlorophenyl)-2,3-dihydro-1-benzofuran-2-yl]methyl}amine], 5.99.
As for `NCC1Cc2cc(-c3ccc(F)cc3)cc(F)c2O1` (racemic) [Example 387, (±)-{[7-fluoro-5-(4-fluorophenyl)-2,3-dihydro-1-benzofuran-2-yl]methyl}amine], the figure is 5.81; as for `NCC1Cc2cc(-c3ccc(C(F)(F)F)cc3)cc(F)c2O1` (racemic) [Example 388, (±)-({7-fluoro-5-[4-(trifluoromethyl)phenyl]-2,3-dihydro-1-benzofuran-2-yl}methyl)amine], 5.80; as for `COc1ccc(-c2cc(F)c3c(c2)CC(CN)O3)cc1` (racemic) [Example 389, (±)-{[7-fluoro-5-(4-methoxyphenyl)-2,3-dihydro-1-benzofuran-2-yl]methyl}amine], 5.79.
`NCC1Cc2ccc(Cl)c(-c3ccccc3Cl)c2O1` (racemic) [Example 400, (±)-{[6-chloro-7-(2-chlorophenyl)-2,3-dihydro-1-benzofuran-2-yl]methyl}amine]: the pKi is 9.30.
As for `CNCC1Cc2ccc(Cl)c(-c3ccccc3Cl)c2O1` (racemic) [Example 404, (±)-{[6-chloro-7-(2-chlorophenyl)-2,3-dihydro-1-benzofuran-2-yl]methyl}methylamine], the figure is 9.40.
With `CNCC1Cc2cc(OC)cc(-c3cc(Cl)ccc3OC)c2O1` (racemic) [Example 502, (±)-{[7-(5-chloro-2-methoxyphenyl)-5-methoxy-2,3-dihydro-1-benzofuran-2-yl]methyl}methylamine], the pKi is 7.22.
To `CNCC1Cc2cc(OC)cc(-c3ccc(F)c(Cl)c3)c2O1` (racemic) [Example 503, (±)-{[7-(3-chloro-4-fluorophenyl)-5-methoxy-2,3-dihydro-1-benzofuran-2-yl]methyl}methylamine] belongs 7.11.
